Measured values reported in patent US9340543B2, “Helquat derivatives, preparation thereof, and use thereof as medicaments” (USTAV ORGANICKE CHEMIE A BIOCHEMIE AKADEMIE VED CR, V.V.I., priority 2013, dated 2016).

What was measured:
Format in all cases: cell-based
CCRF-CEM = assay: CellTiter-Glo luminescent cell viability assay (ATP quantification), CCRF-CEM; settings: acute lymphoblastic leukemia cells, 72 h treatment, viable cells by ATP luminescence
Procedure: (§1) Influence of the test compounds on viability (proliferation) of cell lines used was investigated in concentration range 0-100 μmol·l^−1.
Suspension cell line CCRF-CEM is a permanent in vitro culture of acute lymphoblastic leukemia. CCRF-CEM cell line was cultivated in RPMI 1640 medium (Sigma-Aldrich, cat. no. R8758) with addition of 2 mmol·l^−1 glutamine (Invitrogen, cat. no. 35050-038), 10% fetal bovine serum (FBS, Sigma-Aldrich, cat. no. F9665), 100 IU/ml peniciline, 100 μg/ml streptomycine (Sigma-Aldrich, cat. no. P0781). Passaging was performed 2-3× a week. Population doubling time of CCRF-CEM cell line was 20 h under the cultivation conditions used.
(§2) In order to test the sensitivity of the cell lines towards the studied helquats, cytotoxity test for cell viability assessment based on ATP quantification in cell lysates was used (CellTiter-Glo® Luminescent Cell Viability Assay, Promega, cat. no. G7571). In this test, ATP in cell lysates is detected using luciferase reaction. Luminescence intensity correlates with the ATP level and thus with quantity of metabolically active (viable) cells. IC50 value serves as the output, that is the concentration of the test compound which leads to 50% reduction in number of viable cells as compared to control, untreated population. To this end, IC50 value reflects efficiency of the test compound with regard to the given cell line.
(§3) Cells in the exponential growth phase were seeded into a 96-well microtiter plate were plated at 3000 cells per well. Each well contained 90 μl of cell suspension. The next day, 10 μl of 10× concentrated test compound solutions were added. The effect of helquats was investigated in concentration range 1 to 100 μmol·l^−1 (e.g. 1; 2.5; 5; 7.5; 10; 15; 25; 50 and 100 μmol·l^−1). Apart from the section containing the concentration series of the test compound, each well contained 2 control columns, the first with pure medium (so called blank) and the second with cells in medium without the test compounds (control). Into wells containing controls and blanks, volume of solvent (water) equal to the volume of added compound solutions was added. After 72 h of incubation with the test compounds viability was determined according to the manufacturer's instructions. In short: microtiter well plate was left 30 min to reach the room temperature after it has been removed from the incubator. Then, into each well, 100 μl of the prepared detection agent was added. Next, the well plate was shaken for 2 min to complete the full lysis. Next, after the well had been left in the dark for 15 min, the luminescence was measured in each well using luminometer (Tecan Genios, Austria).
(§4) IC50 value represents concentration of the test compound, which leads to 50% reduction of viable cells (inhibition of cell growth) after 72 h of the treatment. Each helquat concentration was tested in triplicates in a IC50 quantification and at least 3 independent IC50 quantification experiments were performed. IC50 values over 100 μmol·l^−1 were obtained by extrapolation of data measured in concentration range 0-100 μmol·l^−1 for the given helquat.

MOLT-4 = assay: CellTiter-Glo luminescent cell viability assay (ATP quantification), MOLT-4; settings: acute lymfoblastic leukemia cells, 72 h treatment, viable cells by ATP luminescence
Procedure: as §1
Suspension cell line MOLT-4 is a permanent in vitro culture of acute lymfoblastic leukemia. Linie MOLT-4 cell line was cultivated in RPMI 1640 medium (Sigma-Aldrich, see above) with addition of 2 mmol glutamine (Invitrogen, see above), 10% fetal bovine serum (FBS, Sigma-Aldrich, see above), 100 IU/ml peniciline, 100 μg/ml streptomycine (Sigma-Aldrich, see above). Passaging was performed 2-3× a week. Population doubling time of […] cell line was 25 h under the cultivation conditions used.
as §2, §3, §4

LoVo = assay: CellTiter-Glo luminescent cell viability assay (ATP quantification), LoVo; settings: colorectal carcinoma cells, 72 h treatment, viable cells by ATP luminescence, class symbols
Procedure: as §1
Adherent cell line LoVo is a permanent in vitro culture derived from tissue of a patient with colorectal carcinoma. LoVo cell line was cultivated in DMEM medium (Sigma-Aldrich, cat. no. D8437) with addition of 2 mmol·l^−1 glutamine (Invitrogen, see above), 10% fetal bovine serum (FBS, Sigma-Aldrich, see above), 100 IU/ml peniciline, 100 μg/ml streptomycine (Sigma-Aldrich, see above). Passaging was performed twice a week. After washing of cells with sterile PBS, the cells were released by 0.25% trypsin/EDTA (Sigma-Aldrich, see above) at 37° C. for 2 minutes. The trypsin was inactivated by addition of 2 volumes of complete medium, cells were then centrifuged (250×g, 5 min), resuspended, and transferred in the amount needed into a new cultivation bottle with fresh medium. Population doubling time of LoVo cell line was 39 h under the cultivation conditions used.
as §2, §3, §4

SMILES	IC50 (CCRF-CEM) [µM]	IC50 (MOLT-4) [µM]	IC50 (LoVo) [µM]	IC50 (CCRF-CEM; Homo sapiens, CCRF-CEM) [µM]	IC50 (MOLT-4; Homo sapiens, MOLT-4) [µM]	IC50 (LoVo; Homo sapiens, LoVo) [µM]
COc1ccc2cc(/C=C/c3cc[n+]4c(c3)-c3c(c(C)c(C)c5c3-c3c6ccccc6cc[n+]3CC5)CC4)ccc2c1 [(M)-7, (M)-(E)-13-(2-(6-methoxynaphthalene-2-yl)vinyl)-6,7-dimethyl-4,5,8,9-tetrahydroisoquinolino[1,2-a]pyrido[1,2-k][2,9]phenanthroline-3,10-diium trifluoromethanesulfonate]	< 10	< 10	11 to 50			
COc1ccc(/C=C/c2cc[n+]3c(c2)-c2c(c(C)c(C)c4c2-c2c5ccccc5cc[n+]2CC4)CC3)cc1 [(M)-6, (M)-(E)-13-(4-methoxystyryl)-6,7-dimethyl-4,5,8,9-tetrahydroisoquinolino[1,2-a]pyrido[1,2-k][2,9]phenanthroline-3,10-diium trifluoromethanesulfonate]				11 to 50	11 to 50	11 to 50
Cc1c(C)c2c(c3c1CC[n+]1ccc(/C=C/c4ccc(N(C)C)cc4)cc1-3)-c1c3ccccc3cc[n+]1CC2 [(M)-1, (M)-(E)-13-(4-(dimethylamino)styryl)-6,7-dimethyl-4,5,8,9-tetrahydroiso-quinolino[1,2-a]pyrido[1,2-k][2,9]phenanthroline-3,10-diium trifluoromethanesulfonate]	< 10	< 10	11 to 50			
